Laboratory results reported in patent US4835287A, “Antibiotic substance” (SS Pharmaceutical Co., Ltd., priority 1987, dated 1989).
Values after ≈ are worked out from the molar mass of the structure shown.

Tests used:
Proteus rettgeri = assay: Antimicrobial activity (MIC); type: cell-based; details: Providencia rettgeri, read-out: Minimal Inhibitory Concentrations (MICs)
[1] = system: Streptococcus faecalis IFO 12964; assay: Antimicrobial activity (MIC); type: cell-based; details: Enterococcus faecalis, IFO12964, read-out: Minimal Inhibitory Concentrations (MICs)
[2] = system: Staphylococcus aureus Terajima; assay: Antimicrobial activity (MIC); type: cell-based; details: read-out: Minimal Inhibitory Concentrations (MICs)
[3] = system: Pseudomonas aeruqinosa IFO 13736; assay: Antimicrobial activity (MIC); type: cell-based; details: IFO13736, read-out: Minimal Inhibitory Concentrations (MICs)
mouse leukemia P-388 = assay: Antitumor activity (life prolongation) on mouse leukemia P-388; type: in vivo; details: i.p. once a day ten times, CDF1 male mice, P-388 i.p.
Protocol: Curing effects of substances SS42227A and B on mouse leukemia P-388 were examined according to the following method. In the Table, the antitumor activities, or the effect of life prolongation, are expressed as the percentage of the survival time (days) of treated groups (T) per the survival time (days) for the untreated or control group (C).
CDF1 (male: supplied by Charles River Japan Inc.) were inoculated intraperitoneally with 1×10^6 P-388 cells. Then, commencing at 24 hours thereafter, substance SS42227A was intraperitoneally injected into the mice once a day and ten times in total.

[4] = system: Pyricularia oryzae IAM 5016; assay: microbe, parasite or virus in culture; type: cell-based; details: IAM5016, read-out: Minimal Inhibitory Concentrations (MICs)
[5] = system: Staphylococcus epidermidis ATCC 12228; assay: Antimicrobial activity (MIC); type: cell-based; details: ATCC12228, read-out: Minimal Inhibitory Concentrations (MICs)
Serratia marcescens NHL = assay: Antimicrobial activity (MIC); type: cell-based; details: read-out: Minimal Inhibitory Concentrations (MICs)
[6] = system: Aspergillus niger ATCC 9642; assay: Antimicrobial activity (MIC); type: cell-based; details: ATCC9642, read-out: Minimal Inhibitory Concentrations (MICs)
Shigella flexneri 2b = assay: Antimicrobial activity (MIC); type: cell-based; details: read-out: Minimal Inhibitory Concentrations (MICs)
[7] = system: Bacillus subtilis ATCC 6633; assay: Antimicrobial activity (MIC); type: cell-based; details: ATCC6633, read-out: Minimal Inhibitory Concentrations (MICs)
[8] = system: Trichophyton tonsurans IFO 5928; assay: Antimicrobial activity (MIC); type: cell-based; details: IFO5928, read-out: Minimal Inhibitory Concentrations (MICs)
Sarcina lutea ATCC 9341 = assay: Antimicrobial activity (MIC); type: cell-based; details: Micrococcus luteus, ATCC9341, read-out: Minimal Inhibitory Concentrations (MICs)
[9] = system: Micrococcus lysodeikticus IFO 3333; assay: Antimicrobial activity (MIC); type: cell-based; details: Micrococcus luteus, IFO3333, read-out: Minimal Inhibitory Concentrations (MICs)
[10] = Property as to basic, acid or neutral; type: physicochemical
[11] = system: Staphylococcus aureus 209P; assay: Antimicrobial activity (MIC); type: cell-based; details: read-out: Minimal Inhibitory Concentrations (MICs)
[12] = system: Klebsiella pneumoniae ATCC 10031; assay: Antimicrobial activity (MIC); type: cell-based; details: ATCC10031, read-out: Minimal Inhibitory Concentrations (MICs)
Escherichia coli 0-1 = assay: Antimicrobial activity (MIC); type: cell-based; details: 01, read-out: Minimal Inhibitory Concentrations (MICs)
[13] = system: Staphylococcus aureus Smith; assay: Antimicrobial activity (MIC); type: cell-based; details: read-out: Minimal Inhibitory Concentrations (MICs)
Solubility to solvents = type: physicochemical
[14] = system: Candida albicans NHL 4019; assay: Antimicrobial activity (MIC); type: cell-based; details: NHL4019, read-out: Minimal Inhibitory Concentrations (MICs)

Row | Structure (SMILES) | MIC (Proteus rettgeri) [µg/mL] | MIC [1] [µg/mL] | MIC [2] [µg/mL] | MIC [3] [µg/mL] | MIC [4] [µg/mL] | MIC [5] [µg/mL] | MIC (Serratia marcescens NHL) [µg/mL] | MIC [6] [µg/mL] | MIC (Shigella flexneri 2b) [µg/mL] | MIC [7] [µg/mL] | MIC [8] [µg/mL] | MIC (Sarcina lutea ATCC 9341) [µg/mL] | MIC [9] [µg/mL] | Property as to basic, acid or neutral [10] | MIC [11] [µg/mL] | MIC [12] [µg/mL] | MIC (Escherichia coli 0-1) [µg/mL] | MIC [13] [µg/mL] | Solubility to solvents (Solubility to solvents; acetone) | Solubility to solvents (Solubility to solvents; chloroform) | further results
1 | COc1cc(C(=O)OC(C(=O)NC(C(=O)NCC(C)=O)=C2C(OC(C)=O)C(O)C3CN23)C2(C)CO2)c2cccc(C)c2c1 (stereo not shown) [SS42227A] | 100 (≈ 168 µM) | 0.78 (≈ 1.31 µM) | 6.25 (≈ 10.5 µM) | > 100 | 100 (≈ 168 µM) | 6.25 (≈ 10.5 µM) | 100 (≈ 168 µM) | > 100 | < 0.2 | 0.78 (≈ 1.31 µM) | > 100 | < 0.2 | < 0.2 | Neutral | 6.25 (≈ 10.5 µM) | 3.12 (≈ 5.24 µM) | > 100 | 1.56 (≈ 2.62 µM) | Soluble | Soluble | Antitumor Activity T/C (survival time treated/control) (mouse leukemia P-388; 2 μg/kg/day): 163%; Antitumor Activity T/C (survival time treated/control) (mouse leukemia P-388; 4 μg/kg/day): 144%; Antitumor Activity T/C (survival time treated/control) (mouse leukemia P-388; 8 μg/kg/day): 154%; Antitumor Activity T/C (survival time treated/control) (mouse leukemia P-388; 15 μg/kg/day): 192%; Antitumor Activity T/C (survival time treated/control) (mouse leukemia P-388; 15.1 μg/kg/day): 170%; Antitumor Activity T/C (survival time treated/control) (mouse leukemia P-388; 30 μg/kg/day): 211%; Antitumor Activity T/C (survival time treated/control) (mouse leukemia P-388; 31.2 μg/kg/day): 195%; Antitumor Activity T/C (survival time treated/control) (mouse leukemia P-388; 60 μg/kg/day): 77%; Antitumor Activity T/C (survival time treated/control) (mouse leukemia P-388; 62.5 μg/kg/day): 152%; Solubility to solvents (Solubility to solvents; diethyl ether): Soluble; Solubility to solvents (Solubility to solvents; ethyl acetate): Soluble; Solubility to solvents (Solubility to solvents; methanol): Soluble; Solubility to solvents (Solubility to solvents; n-hexane): Sparingly soluble; Solubility to solvents (Solubility to solvents; water): Sparingly soluble; MIC [14]: > 100 µg/mL
2 | COc1cc(C(=O)OC(C(=O)NC(C(=O)NC(=CO)C(C)=O)=C2C(OC(C)=O)C(O)C3CN23)C2(C)CO2)c2cccc(C)c2c1 (stereo not shown) [SS42227B] | > 100 | 0.78 (≈ 1.25 µM) | 50 (≈ 80.2 µM) | > 100 | > 100 | 100 (≈ 160 µM) | > 100 | > 100 | 0.78 (≈ 1.25 µM) | 50 (≈ 80.2 µM) | > 100 | < 0.2 | < 0.2 | Acid | 50 (≈ 80.2 µM) | 50 (≈ 80.2 µM) | > 100 | 1.56 (≈ 2.5 µM) | Soluble | Soluble | Solubility to solvents (Solubility to solvents; diethyl ether): Sparingly soluble; Solubility to solvents (Solubility to solvents; ethyl acetate): Soluble; Solubility to solvents (Solubility to solvents; methanol): Soluble; Solubility to solvents (Solubility to solvents; n-hexane): Sparingly soluble; Solubility to solvents (Solubility to solvents; water): Sparingly soluble; MIC [14]: > 100 µg/mL
